What was measured:
[1] = Permeability of the compound at 10 uM by PAMPA-BBB assay in presence of mixture of porcine brain lipids dodecane; type: ADME; conditions: pig
[2] = Intrinsic clearance in male mouse liver microsomes at 1 uM by UPLC/TOF-MS analysis; type: ADME; conditions: read-out: CLH
[3] = Metabolic stability in mouse plasma assessed as compound remaining measured at 10 uM after 3 hrs by LC-MS/MS analysis; type: ADME, cell-free; conditions: read-out: Stability
MDR1 = experiment: Apparent permeability from apical to basolateral side in MDCK cells expressing human MDR1 at 10 uM after 120 mins by UPLC/TOF-MS analysis; type: ADME, cell-based, Canis lupus familiaris; conditions: dog, read-out: permeability
[4] = Cmax in CD1 mouse at 5 mg/kg, po; type: ADME, organism-based; design: dose 5 mg/kg, route oral; conditions: in vivo
[5] = Half life in CD1 mouse at 5 mg/kg, po; type: ADME, organism-based; design: dose 5 mg/kg, route oral; conditions: in vivo
Mus musculus [6] = experiment: Volume of distribution at steady state in CD1 mouse at 5 mg/kg, po; type: ADME, organism-based; design: dose 5 mg/kg, route oral; conditions: in vivo
Mus musculus [7] = experiment: AUC (0 to infinity) in CD1 mouse at 5 mg/kg, po; type: ADME, organism-based, Plasma; design: time infinity, dose 5 mg/kg, route oral; conditions: in vivo
[8] = Oral bioavailability in CD1 mouse at 5 mg/kg; type: ADME, organism-based; conditions: in vivo
[9] = Ratio of drug level in brain to plasma in CD1 mouse at 5 mg/kg, po; type: ADME, organism-based; design: dose 5 mg/kg, route oral; conditions: read-out: BPR
[10] = Toxicity in human NCI-N87 cells xenografted po dosed SCID mouse qd for 14 days; type: organism-based; conditions: in vivo
[11] = Cmax in SCID mouse at 100 mg/kg, po qd for 14 days; type: ADME, organism-based; design: dose 100 mg/kg, route oral; conditions: in vivo
[12] = Cmax in SCID mouse at 100 mg/kg, po qd for 1 to 7 days and 14 to 21 days; type: ADME, organism-based; design: dose 100 mg/kg, route oral; conditions: in vivo
[13] = Cmax in SCID mouse at 300 mg/kg, po qd for 1 to 3 days; type: ADME, organism-based; design: dose 300 mg/kg, route oral; conditions: in vivo
[14] = AUC in SCID mouse at 100 mg/kg, po qd for 14 days; type: ADME, organism-based; design: dose 100 mg/kg, route oral; conditions: plasma
[15] = AUC in SCID mouse at 100 mg/kg, po qd for 1 to 7 days and 14 to 21 days; type: ADME, organism-based; design: dose 100 mg/kg, route oral; conditions: plasma
[16] = AUC in SCID mouse at 300 mg/kg, po qd for 1 to 3 days; type: ADME, organism-based; design: dose 300 mg/kg, route oral; conditions: plasma
[17] = Tmax in SCID mouse at 100 mg/kg, po qd for 14 days; type: ADME, organism-based; design: dose 100 mg/kg, route oral; conditions: in vivo
[18] = Tmax in SCID mouse at 100 mg/kg, po qd for 1 to 7 days and 14 to 21 days; type: ADME, organism-based; design: dose 100 mg/kg, route oral; conditions: in vivo
[19] = Tmax in SCID mouse at 300 mg/kg, po qd for 1 to 3 days; type: ADME, organism-based; design: dose 300 mg/kg, route oral; conditions: in vivo
[20] = Half life in SCID mouse at 100 mg/kg, po qd for 14 days; type: ADME, organism-based; design: dose 100 mg/kg, route oral; conditions: in vivo
[21] = Half life in SCID mouse at 100 mg/kg, po qd for 1 to 7 days and 14 to 21 days; type: ADME, organism-based; design: dose 100 mg/kg, route oral; conditions: in vivo
[22] = Half life in SCID mouse at 300 mg/kg, po qd for 1 to 3 days; type: ADME, organism-based; design: dose 300 mg/kg, route oral; conditions: in vivo

In the case of `COc1ccccc1N1CCN(C(=O)[C@H]2CC[C@H](Cn3c(=O)[nH]c4ccccc4c3=O)CC2)CC1`, the permeability [1] is reported as “impermeable”.
In the case of `COc1ccc2[nH]c(=O)n(C[C@H]3CC[C@H](C(=O)N4CCN(C(=O)C5CC5)CC4)CC3)c(=O)c2c1`, the permeability [1] is reported as “permeable”, the microsomal CLint at 1 µM [2] is reported as 65.6 µL/min/mg and the remaining at 3 h, 10 µM [3] is reported as 78%.
In the case of `O=c1[nH]c2ccccc2c(=O)n1C[C@H]1CC[C@H](C(=O)N2CCN(c3ncccn3)CC2)CC1`, the permeability [1] is reported as “permeable”.
In the case of `CC(C)C(=O)N1CCN(C(=O)[C@H]2CC[C@H](Cn3c(=O)[nH]c4cccc(F)c4c3=O)CC2)CC1`, the permeability [1] is reported as “permeable”.
For `O=c1[nH]c2ccccc2c(=O)n1C[C@H]1CC[C@H](C(=O)N2CCN(Cc3ccccc3)CC2)CC1`, the permeability [1] was “impermeable”.
With `CC(C)C(=O)N1CCN(C(=O)[C@H]2CC[C@H](Cn3c(=O)[nH]c4ccccc4c3=O)CC2)CC1` the permeability [1] was “permeable”.
For `O=C(C1CCC1)N1CCN(C(=O)[C@H]2CC[C@H](Cn3c(=O)[nH]c4ccccc4c3=O)CC2)CC1`, the permeability [1] was “permeable”.
With `CC(=O)N1CCN(C(=O)[C@H]2CC[C@H](Cn3c(=O)[nH]c4ccccc4c3=O)CC2)CC1` the permeability [1] was “permeable”.
For `COc1ccc2[nH]c(=O)n(C[C@H]3CC[C@H](C(=O)N4CCN(C(C)=O)CC4)CC3)c(=O)c2c1`, the permeability [1] was “permeable”, the microsomal CLint at 1 µM [2] was 41.2 µL/min/mg and the remaining at 3 h, 10 µM [3] was 100%.
For `CC(C)CN1CCN(C(=O)[C@H]2CC[C@H](Cn3c(=O)[nH]c4ccccc4c3=O)CC2)CC1`, the permeability [1] was “permeable”.
In the case of `COc1cccc2[nH]c(=O)n(C[C@H]3CC[C@H](C(=O)N4CCN(C(=O)C(C)C)CC4)CC3)c(=O)c12`, the permeability [1] is reported as “permeable”.
In the case of `COCC(=O)N1CCN(C(=O)[C@H]2CC[C@H](Cn3c(=O)[nH]c4ccc(OC)cc4c3=O)CC2)CC1`, the permeability [1] is reported as “permeable”, the microsomal CLint at 1 µM [2] is reported as 14.5 µL/min/mg and the remaining at 3 h, 10 µM [3] is reported as 74%.
For `COc1ccc2c(c1)c(=O)n(C[C@H]1CC[C@H](C(=O)N3CCN(C(=O)C4CC4)CC3)CC1)c(=O)n2C`, the permeability [1] was “permeable”, the microsomal CLint at 1 µM [2] was 139 µL/min/mg and the remaining at 3 h, 10 µM [3] was 98%.
For `COc1ccc2c(c1)c(=O)n(C[C@H]1CC[C@H](C(=O)N3CCN(C(C)=O)CC3)CC1)c(=O)n2C`, the permeability [1] was “permeable”, the microsomal CLint at 1 µM [2] was 33.3 µL/min/mg and the remaining at 3 h, 10 µM [3] was 100%.
With `COCC(=O)N1CCN(C(=O)[C@H]2CC[C@H](Cn3c(=O)c4cc(OC)ccc4n(C)c3=O)CC2)CC1` the permeability [1] was “permeable”, the microsomal CLint at 1 µM [2] was 23 µL/min/mg and the remaining at 3 h, 10 µM [3] was 95%. The Papp A→B at 2 h, 10 µM (MDR1) was 1.3 ×10⁻⁶ cm/s, the Cmax [4] was 1.3 µM and the half-life [5] was 2.2 h. The Vdss (Mus musculus [6]) was 0.83 L/kg, the AUC (Mus musculus [7]) was 4.9 µM·h and the bioavailability [8] was 42%. It also gave a Kp [9] of 0.03, an MTD at 336 h [10] of 250 mg/kg and a Cmax [11] of 27 µM. The Cmax [12] was 22 µM, the Cmax [13] was 35 µM and the AUC at 336 h [14] was 113 µM·h. It also gave an AUC [15] of 101 µM·h, an AUC [16] of 193 µM·h and a Tmax [17] of 0.5 h. The Tmax [18] was 0.5 h, the Tmax [19] was 1 h and the half-life [20] was 2.2 h. For the same molecule, the half-life [21] was 1.6 h and the half-life [22] was 5.4 h.
For `Cc1cccc2c(=O)n(C[C@H]3CC[C@H](C(=O)N4CCN(C(=O)C(C)C)CC4)CC3)c(=O)[nH]c12`, the permeability [1] was “permeable”.
In the case of `O=C(c1ccno1)N1CCN(C(=O)[C@H]2CC[C@H](Cn3c(=O)[nH]c4ccccc4c3=O)CC2)CC1`, the permeability [1] is reported as “permeable”.
In the case of `COCC(=O)N1CCN(C(=O)[C@H]2CC[C@H](Cn3c(=O)[nH]c4ccccc4c3=O)CC2)CC1`, the permeability [1] is reported as “permeable”.
With `O=C(C1CC1)N1CCN(C(=O)[C@H]2CC[C@H](Cn3c(=O)[nH]c4ccccc4c3=O)CC2)CC1` the permeability [1] was “permeable”.
In the case of `O=c1[nH]c2ccccc2c(=O)n1C[C@H]1CC[C@H](C(=O)N2CCN(c3cnccn3)CC2)CC1`, the permeability [1] is reported as “permeable”.
With `Cc1ccc2[nH]c(=O)n(C[C@H]3CC[C@H](C(=O)N4CCN(C(=O)C(C)C)CC4)CC3)c(=O)c2c1` the permeability [1] was “permeable”.
In the case of `CC(C)C(=O)N1CCN(C(=O)[C@H]2CC[C@H](Cn3c(=O)[nH]c4cc(Cl)ccc4c3=O)CC2)CC1`, the permeability [1] is reported as “permeable”.
In the case of `CC(C)C(=O)N1CCN(C(=O)[C@H]2CC[C@H](Cn3c(=O)[nH]c4cccc(Cl)c4c3=O)CC2)CC1`, the permeability [1] is reported as “permeable”.
With `O=c1[nH]c2ccccc2c(=O)n1C[C@H]1CC[C@H](C(=O)N2CCN(CC3CC3)CC2)CC1` the permeability [1] was “permeable”.
With `COc1ccc2[nH]c(=O)n(C[C@H]3CC[C@H](C(=O)N4CCN(C(=O)C(C)C)CC4)CC3)c(=O)c2c1` the permeability [1] was “permeable”.
